# Assay results: patent US11427548B2 (Arvinas Operations, Inc., priority 2015, dated 2022)
# Read-outs that look alike come from different tables or passages of the source.
# Target: T1, Androgen Receptor (Homo sapiens, UniProt P10275)
# T1 construct: endogenous in cells; host or cells: VCaP cells
# T1 sequence (P10275 1-920): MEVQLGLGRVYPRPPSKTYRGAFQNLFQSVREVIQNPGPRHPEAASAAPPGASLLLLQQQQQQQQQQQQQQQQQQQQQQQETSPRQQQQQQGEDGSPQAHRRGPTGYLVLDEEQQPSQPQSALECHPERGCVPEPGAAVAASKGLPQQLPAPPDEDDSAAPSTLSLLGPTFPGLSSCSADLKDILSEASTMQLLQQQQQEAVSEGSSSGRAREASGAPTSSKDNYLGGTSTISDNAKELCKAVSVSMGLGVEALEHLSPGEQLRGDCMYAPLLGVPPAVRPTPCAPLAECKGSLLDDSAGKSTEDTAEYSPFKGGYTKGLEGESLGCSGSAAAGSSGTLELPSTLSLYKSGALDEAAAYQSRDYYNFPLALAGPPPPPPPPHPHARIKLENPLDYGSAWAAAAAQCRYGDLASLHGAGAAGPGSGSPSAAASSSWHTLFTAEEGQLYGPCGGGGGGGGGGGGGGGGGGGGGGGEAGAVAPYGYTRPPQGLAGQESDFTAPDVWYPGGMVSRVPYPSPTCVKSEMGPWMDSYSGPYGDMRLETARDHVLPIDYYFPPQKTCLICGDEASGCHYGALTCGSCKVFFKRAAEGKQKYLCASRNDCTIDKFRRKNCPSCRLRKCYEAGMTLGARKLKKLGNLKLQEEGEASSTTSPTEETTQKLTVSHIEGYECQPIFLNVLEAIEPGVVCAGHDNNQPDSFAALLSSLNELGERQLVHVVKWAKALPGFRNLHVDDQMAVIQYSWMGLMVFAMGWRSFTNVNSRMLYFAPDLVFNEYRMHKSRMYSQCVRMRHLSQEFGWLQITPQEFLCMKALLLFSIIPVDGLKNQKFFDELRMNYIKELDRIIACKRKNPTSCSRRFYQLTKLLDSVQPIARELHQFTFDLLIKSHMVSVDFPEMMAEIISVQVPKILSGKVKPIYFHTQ
# Test: Androgen Receptor ELISA assay (PathScan AR ELISA) in VCaP cells: AR degradation, Dmax and DC50
# Format: cell-based
# Procedure, shortened: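 After 24 h exposure of VCaP cells (charcoal-stripped serum, 0.1 nM R1881 agonist, 0.1% DMSO) to seven half-log compound concentrations, residual AR in lysates was measured by PathScan ELISA (TMB absorbance, 450 nm). Cells were plated at 30,000/well and grown at least 3 days beforehand.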
# [1] = VCaP cells; Table 34; read-out: VCaP DC50
# [2] = VCaP, VCaP cells; Table 34; read-out: VCaP Dmax (%)
# [3] = read-out: VCaP DC50; VCaP cells; Table 34
# [4] = read-out: VCaP DC50; VCaP cells; Table 35
# [5] = VCaP cells; Table 35; read-out: VCaP DC50
# [6] = VCaP, VCaP cells; Table 35; read-out: VCaP Dmax (%)
Compound,DC50 [5],Dmax [6],"Dmax (VCaP, read-out: VCaP Dmax (%))",DC50 [4],also measured
Cc1ncoc1-c1ccc([C@H](C)NC(=O)[C@@H]2C[C@@H](O)CN2C(=O)[C@@H](NC(=O)COCCCCNc2ccc(C(=O)N[C@H]3C(C)(C)[C@H](Oc4ccc(C#N)c(Cl)c4)C3(C)C)cc2)C(C)(C)C)cc1 [Example 411],–,–,–,–,DC50 [1]: < 50 nM; Dmax [2]: > 71%
CC(C)(C)[C@H](NC(=O)COCCCCNc1ccc(C(=O)N[C@H]2C(C)(C)[C@H](Oc3ccc(C#N)c(Cl)c3)C2(C)C)cc1)C(=O)N1C[C@H](O)C[C@H]1C(=O)NCc1ccc(-c2scnc2C2CC2)cc1 [Example 412],–,–,–,–,DC50 [1]: < 50 nM; Dmax [2]: 51 to 70%
Cc1ncsc1-c1ccc(CNC(=O)[C@@H]2C[C@@H](O)CN2C(=O)[C@@H](NC(=O)COc2ccc(OCC#Cc3ccc(N4C(=S)N(c5ccc(C#N)c(C(F)(F)F)c5)C(=O)C4(C)C)cc3)cc2)C(C)(C)C)cc1 [Example 413],–,–,51 to 70%,–,DC50 [3]: < 50 nM
CCOC(=O)c1ncsc1-c1ccc(CNC(=O)[C@@H]2C[C@@H](O)CN2C(=O)[C@@H](NC(=O)COCCCCOc2ccc(-c3ccc(N4C(=S)N(c5ccc(C#N)c(C(F)(F)F)c5)C(=O)C4(C)C)cc3)cc2)C(C)(C)C)cc1 [Example 414],–,–,< 25%,–,DC50 [3]: < 50 nM
CCc1ncsc1-c1ccc(CNC(=O)[C@@H]2C[C@@H](O)CN2C(=O)[C@@H](NC(=O)COCCCCNc2ccc(C(=O)N[C@H]3C(C)(C)[C@H](Oc4ccc(C#N)c(Cl)c4)C3(C)C)cc2)C(C)(C)C)cc1 [Example 415],–,–,–,–,DC50 [1]: < 50 nM; Dmax [2]: > 71%
Cc1ncsc1-c1ccc(CNC(=O)[C@@H]2C[C@@H](O)CN2C(=O)[C@@H](NC(=O)COCCCCNc2ccc(C(=O)N[C@H]3C(C)(C)[C@H](Oc4ccc(C#N)c(Cl)c4)C3(C)C)cn2)C(C)(C)C)cc1 [Example 416],–,–,–,–,DC50 [1]: 51 to 500 nM; Dmax [2]: 26 to 50%
Cc1ncsc1-c1ccc(CNC(=O)[C@@H]2C[C@@H](O)CN2C(=O)[C@@H](NC(=O)COc2ccccc2CCCOc2ccc(C(=O)N[C@H]3C(C)(C)[C@H](Oc4ccc(C#N)c(Cl)c4)C3(C)C)cc2)C(C)(C)C)cc1 [Example 417],–,–,–,–,DC50 [1]: < 50 nM; Dmax [2]: > 71%
Cc1ncsc1-c1ccc([C@H](C)NC(=O)[C@@H]2C[C@@H](O)CN2C(=O)[C@@H](C(C)C)n2cc(OCCCOCCC(O)CCOc3ccc(N4C(=S)N(c5ccc(C#N)c(C(F)(F)F)c5)C(=O)C4(C)C)cc3)cn2)cc1 (some centres unmarked) [Example 418],–,–,51 to 70%,< 50 nM,–
Cc1ncsc1-c1ccc([C@H](C)NC(=O)[C@@H]2C[C@@H](O)CN2C(=O)[C@H](C(C)C)n2cc(OCCCOCCC(O)CCOc3ccc(N4C(=S)N(c5ccc(C#N)c(C(F)(F)F)c5)C(=O)C4(C)C)cc3)cn2)cc1 (some centres unmarked) [Example 419],–,–,26 to 50%,< 50 nM,–
Cc1ncsc1-c1ccc(CNC(=O)[C@@H]2C[C@@H](O)CN2C(=O)[C@@H](NC(=O)COCC2CCN(c3ccc(-c4ccc(N5C(=S)N(c6ccc(C#N)c(C(F)(F)F)c6)C(=O)C5(C)C)cc4)cn3)CC2)C(C)(C)C)cc1 [Example 420],–,–,51 to 70%,51 to 500 nM,–
Cc1ncsc1-c1ccc([C@H](C)NC(=O)[C@@H]2C[C@@H](O)CN2C(=O)[C@@H](NC(=O)c2cc3ccc(OC4CN(c5ncc(C(=O)N[C@H]6C(C)(C)[C@H](Oc7ccc(C#N)c(Cl)c7)C6(C)C)cn5)C4)cc3o2)C(C)(C)C)cc1 [Example 422],< 50 nM,> 71%,–,–,–
Cc1ncsc1-c1ccc([C@H](C)NC(=O)[C@@H]2C[C@@H](O)CN2C(=O)[C@@H](C(C)C)n2cc(Oc3cccc(OCCCCCOc4ccc(N5C(=S)N(c6ccc(C#N)c(C(F)(F)F)c6)C(=O)C5(C)C)cc4)c3)cn2)nc1 [Example 424],–,–,< 25%,> 501 nM,–
Cc1ncsc1-c1ccc([C@H](C)NC(=O)[C@@H]2C[C@@H](O)CN2C(=O)[C@H](C(C)C)n2cc(Oc3cccc(OCCCCCOc4ccc(N5C(=S)N(c6ccc(C#N)c(C(F)(F)F)c6)C(=O)C5(C)C)cc4)c3)cn2)nc1 [Example 426],–,–,< 25%,> 501 nM,–
Cc1ncsc1-c1ccc([C@H](C)NC(=O)[C@@H]2C[C@@H](O)CN2C(=O)[C@@H](C(C)C)n2cc(OCCCOCCCCCOc3ccc(N4C(=S)N(c5ccc(C#N)c(C(F)(F)F)c5)C(=O)C4(C)C)cc3)cn2)nc1 [Example 427],–,–,< 25%,> 501 nM,–
Cc1ncsc1-c1ccc([C@H](C)NC(=O)[C@@H]2C[C@@H](O)CN2C(=O)[C@H](C(C)C)n2cc(OCCCOCCCCCOc3ccc(N4C(=S)N(c5ccc(C#N)c(C(F)(F)F)c5)C(=O)C4(C)C)cc3)cn2)nc1 [Example 428],–,–,< 25%,> 501 nM,–
Cc1ncsc1-c1ccc([C@H](C)NC(=O)[C@@H]2C[C@@H](O)CN2C(=O)[C@@H](NC(=O)COc2ccc(OC3CCN(c4ccc(N5C(=S)N(c6ccc(C#N)c(C(F)(F)F)c6)C(=O)C5(C)C)cn4)CC3)nc2)C(C)(C)C)cc1 [Example 429],–,–,26 to 50%,> 501 nM,–
Cc1ncsc1-c1ccc([C@H](C)NC(=O)[C@@H]2C[C@@H](O)CN2C(=O)[C@@H](NC(=O)COc2ccc(OC3CCN(c4ccc(N5C(=S)N(c6ccc(C#N)c(C(F)(F)F)c6)C(=O)C5(C)C)cc4)CC3)nc2)C(C)(C)C)cc1 [Example 430],–,–,< 25%,> 501 nM,–
Cc1ncsc1-c1ccc([C@H](C)NC(=O)[C@@H]2C[C@@H](O)CN2C(=O)[C@@H](C(C)C)n2cc(OCCCOCCCCCOc3ccc(N4C(=S)N(c5ccc(C#N)c(C(F)(F)F)c5)C(=O)C4(C)C)cc3)cn2)cc1 [Example 434],–,–,–,> 501 nM,–
Cc1ncsc1-c1ccc([C@H](C)NC(=O)[C@@H]2C[C@@H](O)CN2C(=O)[C@H](C(C)C)n2cc(OCCCOCCCCCOc3ccc(N4C(=S)N(c5ccc(C#N)c(C(F)(F)F)c5)C(=O)C4(C)C)cc3)cn2)cc1 [Example 435],–,–,–,> 501 nM,–

# Further lines, with some results ahead:
DC50 [5],Dmax [6],Compound,"Dmax (VCaP, read-out: VCaP Dmax (%))",DC50 [4],also measured
< 50 nM,> 71%,Cc1nccn1-c1ccc([C@H](C)NC(=O)[C@@H]2C[C@@H](O)CN2C(=O)[C@@H](NC(=O)COCCNc2ccc(-c3ccc(C(=O)N[C@H]4C(C)(C)[C@H](Oc5ccc(C#N)c(Cl)c5)C4(C)C)cc3)cn2)C(C)(C)C)cc1 [Example 425],–,–,–
> 501 nM,< 25%,Cc1ncsc1-c1ccc([C@H](C)NC(=O)[C@@H]2C[C@@H](O)CN2C(=O)[C@@H](NC(=O)CNC(=O)c2ccc(Oc3ccc(C(=O)N[C@H]4C(C)(C)[C@H](Oc5ccc(C#N)c(Cl)c5)C4(C)C)cn3)cc2)C(C)(C)C)nc1 [Example 432],–,–,–
< 50 nM,51 to 70%,Cc1ncsc1-c1ccc([C@H](C)NC(=O)[C@@H]2C[C@@H](O)CN2C(=O)[C@@H](NC(=O)COc2ccc(OC3CCC(Oc4ccc(C(=O)N[C@H]5C(C)(C)[C@H](Oc6ccc(C#N)c(Cl)c6)C5(C)C)cc4)CC3)nc2)C(C)(C)C)cc1 (some centres unmarked) [Example 433],–,–,–
> 501 nM,51 to 70%,Cc1ncsc1-c1ccc([C@H](C)NC(=O)[C@@H]2C[C@@H](O)CN2C(=O)[C@@H](C(C)C)n2cc(OCC3CCN(c4ccc(C(=O)N[C@H]5C(C)(C)[C@H](Oc6ccc(C#N)c(Cl)c6)C5(C)C)cc4)CC3)cn2)cc1 [Example 436],–,–,–
> 501 nM,–,Cc1ncsc1-c1ccc([C@H](C)NC(=O)[C@@H]2C[C@@H](O)CN2C(=O)[C@H](C(C)C)n2cc(OCC3CCN(c4ccc(C(=O)N[C@H]5C(C)(C)[C@H](Oc6ccc(C#N)c(Cl)c6)C5(C)C)cc4)CC3)cn2)cc1 [Example 437],–,–,–
< 50 nM,> 71%,Cc1ncsc1-c1ccc([C@H](C)NC(=O)[C@@H]2C[C@@H](O)CN2C(=O)[C@@H](NC(=O)COCCN2CCN(c3ccc(C(=O)N[C@H]4C(C)(C)[C@H](Oc5ccc(C#N)c(Cl)c5)C4(C)C)cc3)CC2)C(C)(C)C)cc1 [Example 438],–,–,–
< 50 nM,> 71%,Cc1ncsc1-c1ccc([C@H](C)NC(=O)[C@@H]2C[C@@H](O)CN2C(=O)[C@@H](NC(=O)COCC2CCN(c3ccc(C(=O)N[C@H]4C(C)(C)[C@H](Oc5ccc(C#N)c(Cl)c5)C4(C)C)cn3)CC2)C(C)(C)C)cc1 [Example 442],–,–,–
< 50 nM,> 71%,Cc1nccn1-c1ccc([C@H](C)NC(=O)[C@@H]2C[C@@H](O)CN2C(=O)[C@@H](NC(=O)CNC(=O)c2ccc(Oc3ccc(C(=O)N[C@H]4C(C)(C)[C@H](Oc5ccc(C#N)c(Cl)c5)C4(C)C)cc3)cc2)C(C)(C)C)cc1 [Example 444],–,–,–
< 50 nM,> 71%,Cc1ncsc1-c1ccc([C@H](C)NC(=O)[C@@H]2C[C@@H](O)CN2C(=O)[C@@H](NC(=O)COCCNc2ccc(-c3ccc(C(=O)N[C@H]4C(C)(C)[C@H](Oc5ccc(C#N)c(Cl)c5)C4(C)C)cc3)cn2)C(C)(C)C)cc1 [Example 445],–,–,–
